Assay results from article PMC3386930, “Altering APP Proteolysis: Increasing sAPPalpha Production by Targeting Dimerization of the APP Ectodomain” (PLoS ONE, 2012).
Entries after “also recorded” stand apart in the source; their conditions may differ.

Tests used:
eAPP230–624 [1] = molecular target: T1, eAPP230–624 (Homo sapiens, UniProt P05067); test: Difference absorption spectra of eAPP230–624; type: binding
T1 construct: made in house

Aβ oligomers = conditions: cited from earlier work
eAPP230–624 [2] = molecular target: T1, eAPP230–624; test: Intrinsic tryptophan fluorescence of eAPP230–624; type: binding; conditions: for quenching constant (Ksv): linear part, equation 1
Procedure: (§1) The excitation spectra of the intrinsic tryptophan fluorescence were recorded using either a Shimadzu RF-530PC (Shimadzu Scientific Instruments) or a Spectramax XPS spectrophotometer (Molecular Devices).
Full emission spectra were measured with the Shimadzu RF-530PC using a 3 ml quartz cuvette, a 5 nm slit width and protein concentrations between 0.2–0.6 µM. […] For these larger dilutions, control titrations with the protein alone were used to generate a scaling matrix where the scale factor was both a function of wavelength and dilution. […] A similar scaling matrix was used to correct for the effect of dilution with DMSO. […] All titrations were performed at 24°C. The oligomers were stored on ice during the experiment.
These concentrations are analogous to concentrations used to create complexes for the small angle x-ray scattering analysis. The incubated material was diluted with PBS so that the final protein concentration was 0.5 µM. The spectra were recorded with the Shimadzu […].
For experiments with the Spectromax XPS plate reader, an excitation wavelength of 295 nm was used. This excitation wavelength was chosen to minimize both the contribution of tyrosine in the protein and the background fluorescence of the 96-well plates (Costar #3915).
For the quenching experiments, the data were analyzed by constructing Stern-Volmer plots, F0/F vs. Q, where Fo is the intensity of the fluorescence at zero concentration, F is the intensity of the fluorescence, and Q is the concentration of the quenching agent. When quenching is through either a static (binding) or dynamic (collisional) mechanism this plot is linear and follows the equation: [drawing 1] (1) where Ksv is the quenching constant. When both processes are present the Stern-Volmer plot is quadratic: [drawing 2] (2) where KD is the equilibrium constant associated with dynamic quenching and Ks is the equilibrium constant associated with static quenching. All parameters were determined using PRISM (GraphPad) and the appropriate non-linear curve fitting routine.
The centroid wavelength (λc) was calculated as: [drawing 3] (3) where I(λi) is the intensity observed for the wavelength (λi). The range of wavelengths was 310–390 nm.

7W-CHO cells = test: sAPPα and sAPPβ production in 7W-CHO cells (AlphaLISA); type: cell-based; conditions: 1 µM compound, 24 hours, 50,000 cells per well, vs 0.01% DMSO
Procedure: (§2) B103 rat neuroblastoma cells and 7W-CHO cells were seeded at 100,000 or 50,000 cells per well in a 96-well plate and allowed to grow for one day. The B103 rat neuroblastoma cells stably expressing human wild-type APP were a kind gift from Dr. Lennart Mucke (J. David Gladstone Institute of Neurological Disease and University of California, San Francisco). The 7W-CHO cells were a kind gift from Dr. Edward Koo (Department of Molecular Pathology, University of California, San Diego). The cell culture medium was then changed and the cells treated with 1 µM disulfiram, 1 µM sulfiram, or 0.01% DMSO (control). After 24 hours, the amount of sAPPα and sAPPβ produced in the medium was quantified using the AL231C and AL232C AlphaLISA kits from Perkin Elmer, respectively, modified using a custom biotinylated APP antibody.
A) Effect of treatment with disulfiram and sulfiram on sAPPα and Aβ production in 7W-CHO cells. 7W-CHO cells were seeded at 50,000 cells per well in a 96-well plate and allowed to grow for one day. The cell culture medium was then changed and the cells treated with 1 µM disulfiram, 1 µM sulfiram, or 0.01% DMSO (control). After 24 hours, the amount of sAPPα and sAPPβ produced in the medium was quantified using the AL231C and AL232C AlphaLISA kit from Perkin Elmer, modified using a custom biotinylated human APP antibody. B) Effect on the ratio of α to β cleavage in 7W-CHO cells, as calculated by dividing the amount of sAPPα to sAPPβ produced by the 50,000 7W-CHO cells during one day under the effect of either disulfiram, sulfiram or a DMSO control. C) Effect on the ratio of α to β cleavage in B103 cells. B103 neuroblastoma cells were seeded at 100,000 cells per well in a 96-well plate and allowed to grow for one day. The cell culture medium was then changed and the cells treated with 1 µM disulfiram, 1 µM sulfiram, or 0.01% DMSO (Control). After 24 hours, the amount of sAPPα and sAPPβ produced in the medium was quantified using the same modified AL231C and AL232C AlphaLISA kit from Perkin Elmer. The ratio of α to β cleavage was calculated by dividing the amount of sAPPα to sAPPβ produced by the 100,000 B103 cells during one day under the effect of the disulfiram, sulfiram or DMSO control.

MBP-eAPP230–624 [3] = test: ADAM10 cleavage of MBP-eAPP230–624 in vitro (sAPPα AlphaLISA); type: biochemical; conditions: 1 uM disulfiram 15 minutes, then ADAM10 60 minutes
Procedure: Then, ADAM10 was added for 60 minutes. Time points were taken every 20 minutes.

[4] = system: B103 rat neuroblastoma cells stably expressing human wild-type APP; test: sAPPα and sAPPβ production in B103 cells (AlphaLISA); type: cell-based; conditions: 1 µM compound, 24 hours, 100,000 cells per well, vs 0.01% DMSO
Procedure: as §2
A) Effect of treatment with disulfiram and sulfiram on sAPPα and Aβ production in 7W-CHO cells. […] After 24 hours, the amount of sAPPα and sAPPβ produced in the medium was quantified using the AL231C and AL232C AlphaLISA kit from Perkin Elmer, modified using a custom biotinylated human APP antibody. B) Effect on the ratio of α to β cleavage in 7W-CHO cells, as calculated by dividing the amount of sAPPα to sAPPβ produced by the 50,000 7W-CHO cells during one day under the effect of either disulfiram, sulfiram or a DMSO control. […]

MBP-eAPP230–624 [5] = test: Small-angle X-ray scattering (SAXS) of MBP-eAPP230–624 complexes; type: binding; conditions: 50 µM compound, 1:12 molar ratio, PBS plus 2% DMSO
Procedure: as §1
The samples were incubated on ice for 20 minutes and then concentrated to 50 µl with 10-kDa cutoff concentrators (Millipore). […] Samples of the filtrates were used for buffer subtraction.
The samples were then concentrated and purified with a Superdex S200 size-exclusion column with 20 mM Tris pH 7.4, 100 mM sodium chloride and 2 mM EDTA. Samples of the protein buffer from the size-exclusion columns were used for buffer subtraction.
Data collection and processing
Small-angle X-ray scattering data were collected using protein concentrations in the range of 0.5–3 mg/ml and an X-ray wavelength of 1.11 Å at beam line 12.3.1 (Advanced Light Source). Data were integrated with software customized for the beam line and processed with the program PRIMUS [30]. The program GNOM [31] was used to calculate the maximum dimension and the radius of gyration and to estimate the intensity of the scattering at zero angle for higher concentration samples.

APP = conditions: cited from earlier work
Description: These changes in conformation may be important in setting the balance between α-cleavage and β-cleavage of APP because the relative rates of these cleavages are known to be affected by interactions between APP and a number of proteins, both at the cell surface and during recycling of APP [19], [20]. Altering the balance of these two cleavages to favor α-cleavage is of potential therapeutic benefit for Alzheimer's disease since it would reduce Aβ production and enhance sAPPα production, without inhibition of the beta and gamma secretases. A precedent exists for this effect in that an increa ...

T1 sequence (P05067 230-624 isoform P05067-4): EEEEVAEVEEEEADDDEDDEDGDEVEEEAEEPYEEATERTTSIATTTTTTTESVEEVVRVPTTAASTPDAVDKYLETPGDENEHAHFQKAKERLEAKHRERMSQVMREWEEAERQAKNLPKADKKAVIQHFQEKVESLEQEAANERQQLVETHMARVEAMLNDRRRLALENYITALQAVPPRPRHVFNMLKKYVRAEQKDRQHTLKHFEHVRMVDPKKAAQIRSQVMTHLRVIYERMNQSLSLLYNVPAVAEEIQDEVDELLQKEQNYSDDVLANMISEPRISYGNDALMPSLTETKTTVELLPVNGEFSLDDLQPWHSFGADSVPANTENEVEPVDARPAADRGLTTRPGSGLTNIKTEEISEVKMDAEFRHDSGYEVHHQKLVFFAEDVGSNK

Compound: O=S(=O)(O)c1cccc2cccc(Nc3ccccc3)c12 [1,8-ANS, 1-anilinonaphthalene-8-sulfonic acid]
- effect on absorption of eAPP230–624 (eAPP230–624 [1]; one-to-ten molar ratio protein to 1,8-ANS, 3 µM eAPP230–624): significant effect on the absorption
- binding to Aβ oligomers and Aβ aggregation (Aβ oligomers): bind to Aβ oligomers and prevent Aβ aggregation
- fluorescence intensity drop (eAPP230–624 [2]; 1,8-ANS below 50 µM (1:14 protein to 1,8-ANS molar ratio)): more than 50%
- quenching of fluorescence at high concentration (eAPP230–624 [2]; 1,8-ANS greater than 150 µM): quench nearly all the fluorescence
- quenching of intrinsic fluorescence (FRET) (eAPP230–624 [2]; 1:20 protein to 1,8-ANS molar ratio, excitation wavelengths greater than 285 nm): efficiently quenched the intrinsic fluorescence
- quenching constant (Ksv) (eAPP230–624 [2]; 345 nm, Shimadzu RF-530PC, 0.64 µM eAPP230–624, 24°C): 9.3 ± 0.1 mM⁻¹
- quenching constant (Ksv) (eAPP230–624 [2]; 375 nm, Shimadzu RF-530PC, 0.64 µM eAPP230–624, 24°C): 10.9 ± 0.2 mM⁻¹
- quenching constant (Ksv) (eAPP230–624 [2]; 375 nm, Spectramax XPS plate reader): 9.6 ± 0.3 mM⁻¹

Compound: CCN(CC)C(=S)SSC(=S)N(CC)CC [Disulfiram]
- change in extinction coefficient (eAPP230–624 [1]; 1:6 molar ratio, 8.3 µM eAPP230–624, 50 µM compound, PBS plus 2% DMSO): significant drop in the extinction coefficient
- sAPPα production / α-cleavage of APP (in words) (7W-CHO cells): increase sAPPα production
- sAPPα production / α-cleavage of APP (in words) (7W-CHO cells; listed as disulfiram): significantly enhance the production of sAPPα; also recorded: enhance α-cleavage significantly
- accessibility of the α-cleavage site to ADAM10 cleavage (in words) (MBP-eAPP230–624 [3]): increase the accessibility of the α-cleavage site near lysine 612 to ADAM10 cleavage
- sAPPα production / α-cleavage of APP (in words) [4]: significantly enhance the production of sAPPα; also recorded: enhance α-cleavage significantly
- fluorescence peak wavelength (shifted from 344 nm) (eAPP230–624 [2]; 0.64 µM eAPP230–624, disulfiram 0–130 µM): 357 nm
- quenching of intrinsic fluorescence (in words) (eAPP230–624 [2]; 0.64 µM eAPP230–624, disulfiram 0–130 µM, sulfiram 0–320 µM, Shimadzu RF-530PC): significantly quenched the intrinsic fluorescence
- Stern-Volmer slope relative to sulfiram (eAPP230–624 [2]; 0.64 µM eAPP230–624, disulfiram vs sulfiram): 1.6 times
- relative binding affinity for eAPP230–624 (in words) (eAPP230–624 [2]; inferred from Stern-Volmer slopes, disulfiram vs sulfiram): higher binding affinity for eAPP230–624 than sulfiram
- effect on dimerization of the ectodomain fragment (in words) (eAPP230–624 [2]; intrinsic fluorescence, confirmed with SAXS): inhibit dimerization of the ectodomain fragment
- effect on monomer-dimer equilibrium / dimerization of MBP-eAPP230–624 (in words) (MBP-eAPP230–624 [5]): inhibits dimerization of MBP-eAPP230–624
- effect on monomer-dimer equilibrium / dimerization of MBP-eAPP230–624 (in words) (MBP-eAPP230–624 [5]; listed as disulfiram): significantly affected the monomer-dimer equilibrium of MBP-eAPP230–624 in favor of the monomer; also recorded: mixture of monomer and dimer

Compound: sAPPα: product of α-cleavage of APP; contains almost the entire ectodomain
- inhibition of APP dimerization and cell survival (in words) (APP): inhibit APP dimerization and increase cell survival
